From patent publication US20200333324A1, “METHOD OF PREDICTING CLINICAL OUTCOME OF ANTICANCER AGENTS” (MITRA RXDX, INC., priority 2017, published 2020)

How the values were obtained:
Type in all cases: cell-based, human
HNSCC tumor tissue [1] = test: FACS analysis for CD3 and CD8 (CD8+ T cell infiltration) in tumor microenvironment platform; settings: vs IgG control
Description: (§1) The effect of Pembrolizumab and Nivolumab on CD8^+ T cell tumor infiltration was then evaluated. Tumor sections from the same patient cultured for 72 hours in the tumor microenvironment platform were treated with Pembrolizumab, Nivolumab, or IgG as control and stained for H&E, Ki67, Caspase 3, and CD8 at day 3 in culture (T3). Baseline staining was determined at TO. […] To further elucidate the effects of the anti-PD-1 antibodies, FACS analysis was performed on tumor tissue from patient 2941 and patient 2942 treated with either Pembrolizumab, Nivolumab, or IgG control. […] By contrast, there was no effect of either Pembrolizumab or Nivolumab on CD8^+ T cell infiltration for patient 2942, further highlighting the differential response between individuals to PD-1 blockade. CD8^+ T cell infiltration was evaluated in the tumor microenvironment platform with tumor tissue from the same patient, and comparisons for control vs Nivo, control vs Pembro, Nivo vs Pembro, and control vs Nivo vs Pembro for multiple patients are shown in FIG. 6 (each line represents results from the tumor microenvironment platform cultured with tumor tissue from a single individual).

HNSCC tumor tissue [2] = test: IHC for CD8, PD-L1, PD-1 and FOXP3 positive cells in tumor microenvironment platform; settings: T3; for number of PD-1^+ cells in the tumor microbed: vs IgG control
Description: as §1
The effect of Pembrolizumab and Nivolumab on the expression of immunoregulatory molecules, including PD-1 and FOXP3, in the tumor microenvironment platform tumor microbed was evaluated. Tumor sections from the same patient cultured for 3 days (72 hours) in the tumor microenvironment platform were treated with Pembrolizumab, Nivolumab, or IgG control and stained for CD8, FOXP3, and PD-1 at day 3 in culture (T3). Baseline staining was determined at TO. Results are shown in FIG. 7A for tumor sections from a predicted responder to Pembrolizumab or Nivolumab and FIG. 7B for a predicted non-responder to Pembrolizumab or Nivolumab, as characterized by M-score. There was in increase in the number of PD-1^+ cells in the tumor microbed for both Pembrolizumab and Nivolumab, which was to a greater degree in the case of Nivolumab, when compared to IgG control in the responder (FIG. 7A). There was no change for either Pembrolizumab and Nivolumab in the non-responder (FIG. 7B). The numbers of PD-L1^+ tumor cells, PD-1^+ T cells, FOXP3^+ T-regulatory cells, and CD8^+ T cells were evaluated using the tumor microenvironment platform with tumor tissue from the same patient in Nivolumab, Pembrolizumab, and control conditions, and are summarized in Table 3. Comparisons for control vs Nivo, control vs Pembro, Nivo vs Pembro, and control vs Nivo vs Pembro for multiple patients are shown in FIG. 8 (each line represents results from the tumor microenvironment platform cultured with tumor tissue from a single individual).

HNSCC tumor tissue [3] = test: M-score clinical outcome predictor: tumor microenvironment platform assays (WST-1, LDH, ATP, glucose uptake, Caspase 3/8, Ki67, H&E) input into machine-trained algorithm; design: scale not given here
Source text: Utilizing primary and late stage HNSCC patient samples (n=16) we interrogated phenotypic response to both Pembrolizumab (KEYTRUDA) and Nivolumab (OPDIVO), two FDA-approved PD-1 inhibitors, as single agents on the tumor microenvironment platform with tumor tissue from the same patient. To do this, we assayed tumor proliferation (Ki67) and apoptosis (active caspase-3), in addition to using a comprehensive panel of immunological assays to evaluate changes in the immune compartment (CD8, CD45, FOXP3, CXCR4, CD68, PDL1, PD1) and cytokine profile (IL6, IL8, IFN-g and IL12).

HNSCC tumor tissue [4] = test: Granzyme B and Perforin secretion assays, HNSCC tumor sections in tumor microenvironment platform; settings: 48 hours
Description: FIGS. 9A and 9B show quantification of results for Granzyme B and Perforin secretion assays for HNSCC tumor tissue cultured in the tumor microenvironment platform treated with Pembrolizumab, Nivolumab, or IgG control for 24 or 48 hours.
HNSCC tumor sections from the same patient cultured for 24 or 48 hours in the tumor microenvironment platform with Pembrolizumab, Nivolumab, or IgG as control were assayed for Granzyme B and Perforin secretion. Results are shown in FIG. 9A for the tumor microenvironment platform with tumor tissue from a predicted responder and FIG. 9B for the tumor microenvironment platform with tumor tissue from a predicted non-responder. After treatment with Pembrolizumab for 48 hours, there was an increase in both Granzyme B and Perforin secretion in the tumor microenvironment platform with tissue from the predicted responder compared to treatment with the control IgG. By contrast, at 48 hours in the tumor microenvironment platform with tissue from the predicted non-responder there was no increase in Granzyme B or Perforin secretion for treatment with either Pembrolizumab or Nivolumab.

[5] = predicted responder, compared to control IgG

**Q.** What does the source list for Pembrolizumab?
**A.** CD8^+ T cell infiltration (FACS) (HNSCC tumor tissue [1]; patient 2941): but not Pembrolizumab; CD8^+ T cell infiltration (FACS) (HNSCC tumor tissue [1]; patient 2942): no effect; # cells/field PD-1^+ (HNSCC tumor tissue [2]; Patient ID 2916, control 0): 0 cells/field; # cells/field PD-L1^+ (HNSCC tumor tissue [2]; Patient ID 2916, control 1): 2 cells/field; # cells/field FOXP3^+ (HNSCC tumor tissue [2]; Patient ID 2916, control 3): 2 cells/field; # cells/field CD8^+ (HNSCC tumor tissue [2]; Patient ID 2916, control 20): 18 cells/field; # cells/field PD-1^+ (HNSCC tumor tissue [2]; Patient ID 2918, control 2): 0 cells/field; # cells/field FOXP3^+ (HNSCC tumor tissue [2]; Patient ID 2918, control 3): 3 cells/field; # cells/field CD8^+ (HNSCC tumor tissue [2]; Patient ID 2918, control 10): 14 cells/field; # cells/field PD-L1^+ (HNSCC tumor tissue [2]; Patient ID 2918, control 10): 10 cells/field; # cells/field PD-1^+ (HNSCC tumor tissue [2]; Patient ID 2926, control 0): 0 cells/field; # cells/field PD-L1^+ (HNSCC tumor tissue [2]; Patient ID 2926, control 3): 1 cells/field; # cells/field FOXP3^+ (HNSCC tumor tissue [2]; Patient ID 2926, control 4): 10 cells/field; # cells/field CD8^+ (HNSCC tumor tissue [2]; Patient ID 2926, control 25): 5 cells/field; # cells/field PD-1^+ (HNSCC tumor tissue [2]; Patient ID 2928, control 0): 0 cells/field; # cells/field PD-L1^+ (HNSCC tumor tissue [2]; Patient ID 2928, control 0): 1 cells/field; # cells/field CD8^+ (HNSCC tumor tissue [2]; Patient ID 2928, control 4): 1 cells/field; # cells/field FOXP3^+ (HNSCC tumor tissue [2]; Patient ID 2928, control 4): 1 cells/field; # cells/field CD8^+ (HNSCC tumor tissue [2]; Patient ID 2939, control 0): 5 cells/field; # cells/field PD-1^+ (HNSCC tumor tissue [2]; Patient ID 2939, control 0): 0 cells/field; # cells/field FOXP3^+ (HNSCC tumor tissue [2]; Patient ID 2939, control 1): 1 cells/field; # cells/field PD-L1^+ (HNSCC tumor tissue [2]; Patient ID 2939, control 10): 15 cells/field; # cells/field PD-1^+ (HNSCC tumor tissue [2]; Patient ID 2941, control 0): 1 cells/field; # cells/field FOXP3^+ (HNSCC tumor tissue [2]; Patient ID 2941, control 3): 4 cells/field; # cells/field PD-L1^+ (HNSCC tumor tissue [2]; Patient ID 2941, control 3): 6 cells/field; # cells/field CD8^+ (HNSCC tumor tissue [2]; Patient ID 2941, control 5): 7 cells/field; # cells/field PD-1^+ (HNSCC tumor tissue [2]; Patient ID 2942, control 0): 0 cells/field; # cells/field PD-L1^+ (HNSCC tumor tissue [2]; Patient ID 2942, control 0): 0 cells/field; # cells/field CD8^+ (HNSCC tumor tissue [2]; Patient ID 2942, control 3): 2 cells/field; # cells/field FOXP3^+ (HNSCC tumor tissue [2]; Patient ID 2942, control 3): 2 cells/field; # cells/field FOXP3^+ (HNSCC tumor tissue [2]; Patient ID 2948, control 1): 3 cells/field; # cells/field PD-1^+ (HNSCC tumor tissue [2]; Patient ID 2948, control 1): 0 cells/field; # cells/field PD-L1^+ (HNSCC tumor tissue [2]; Patient ID 2948, control 10): 1 cells/field; # cells/field CD8^+ (HNSCC tumor tissue [2]; Patient ID 2948, control 20): 25 cells/field; # cells/field PD-1^+ (HNSCC tumor tissue [2]; Patient ID 2949, control 1): 6 cells/field; # cells/field FOXP3^+ (HNSCC tumor tissue [2]; Patient ID 2949, control 5): 3 cells/field; # cells/field PD-L1^+ (HNSCC tumor tissue [2]; Patient ID 2949, control 20): 28 cells/field; # cells/field CD8^+ (HNSCC tumor tissue [2]; Patient ID 2949, control 50): 40 cells/field; # cells/field PD-1^+ (HNSCC tumor tissue [2]; Patient ID 2956, control 0): 0 cells/field; # cells/field CD8^+ (HNSCC tumor tissue [2]; Patient ID 2956, control 1): 1 cells/field; # cells/field PD-L1^+ (HNSCC tumor tissue [2]; Patient ID 2956, control 2): 0 cells/field; # cells/field FOXP3^+ (HNSCC tumor tissue [2]; Patient ID 2956, control 8): 1 cells/field; # cells/field PD-1^+ (HNSCC tumor tissue [2]; Patient ID 2963, control 0): 0 cells/field; # cells/field CD8^+ (HNSCC tumor tissue [2]; Patient ID 2963, control 6): 2 cells/field; # cells/field FOXP3^+ (HNSCC tumor tissue [2]; Patient ID 2963, control 10): 2 cells/field; # cells/field PD-L1^+ (HNSCC tumor tissue [2]; Patient ID 2963, control 12): 10 cells/field; # cells/field PD-1^+ (HNSCC tumor tissue [2]; Patient ID 2978, control 0): 0 cells/field; # cells/field FOXP3^+ (HNSCC tumor tissue [2]; Patient ID 2978, control 1): 2 cells/field; # cells/field PD-L1^+ (HNSCC tumor tissue [2]; Patient ID 2978, control 1): 1 cells/field; # cells/field CD8^+ (HNSCC tumor tissue [2]; Patient ID 2978, control 12): 22 cells/field; # cells/field PD-1^+ (HNSCC tumor tissue [2]; Patient ID 2979, control 0): 0 cells/field; # cells/field FOXP3^+ (HNSCC tumor tissue [2]; Patient ID 2979, control 2): 3 cells/field; # cells/field PD-L1^+ (HNSCC tumor tissue [2]; Patient ID 2979, control 5): 8 cells/field; # cells/field CD8^+ (HNSCC tumor tissue [2]; Patient ID 2979, control 25): 10 cells/field; # cells/field PD-1^+ (HNSCC tumor tissue [2]; Patient ID 2980, control 0): 0 cells/field; # cells/field FOXP3^+ (HNSCC tumor tissue [2]; Patient ID 2980, control 1): 2 cells/field; # cells/field PD-L1^+ (HNSCC tumor tissue [2]; Patient ID 2980, control 8): 2 cells/field; # cells/field CD8^+ (HNSCC tumor tissue [2]; Patient ID 2980, control 30): 8 cells/field; # cells/field FOXP3^+ (HNSCC tumor tissue [2]; Patient ID 2981, control 0): 1 cells/field; # cells/field PD-1^+ (HNSCC tumor tissue [2]; Patient ID 2981, control 0): 0 cells/field; # cells/field PD-L1^+ (HNSCC tumor tissue [2]; Patient ID 2981, control 0): 0 cells/field; # cells/field CD8^+ (HNSCC tumor tissue [2]; Patient ID 2981, control 1): 12 cells/field; number of PD-1^+ cells in the tumor microbed (HNSCC tumor tissue [2]; predicted non-responder): no change; number of PD-1^+ cells in the tumor microbed (HNSCC tumor tissue [2]; predicted responder, to a greater degree in the case of Nivolumab): increase; M-score (HNSCC tumor tissue [3]; Patient ID 2918): 13; M-score (HNSCC tumor tissue [3]; Patient ID 2928): 16; M-score (HNSCC tumor tissue [3]; Patient ID 2941): 38; M-score (HNSCC tumor tissue [3]; Patient ID 2948): 4; M-score (HNSCC tumor tissue [3]; Patient ID 2949): 6; M-score (HNSCC tumor tissue [3]; Patient ID 2956): 6; M-score (HNSCC tumor tissue [3]; Patient ID 2978): 22; M-score (HNSCC tumor tissue [3]; Patient ID 2981): 7; Granzyme B secretion (HNSCC tumor tissue [4]; predicted non-responder): no increase; Perforin secretion (HNSCC tumor tissue [4]; predicted non-responder): no increase; Granzyme B secretion (HNSCC tumor tissue [4]; [5]): increase; Perforin secretion (HNSCC tumor tissue [4]; [5]): increase
